Measured values: ChEMBL document CHEMBL4837216, “Polymyxin B-inspired non-hemolytic tyrocidine A analogues with significantly enhanced activity against gram-negative bacteria: How cationicity impacts cell specificity and antibacterial mechanism” (Eur J Med Chem, 2021)
The source made the active and inactive calls.

Experiments:
[1] = test system: Lipopolysaccharide (LPS); assay: Displacement of dansyl-polymyxinB from LPS (unknown origin) assessed as decrease in fluorescence intensity by fluorescence spectrophotometric analysis
[2] = test system: Cell membrane; assay: Induction of cytoplasmic membrane permeabilization in Staphylococcus aureus at 0.06 to 8 times MIC measured for 10 mins by propidium iodide dye based fluorescence assay
[3] = test system: Cell membrane; assay: Induction of cytoplasmic membrane permeabilization in Staphylococcus aureus assessed as increase in red fluorescence intensity at 2 times MIC measured after 60 mins by fluorescence microscopy
[4] = test system: Escherichia coli; assay: Antibacterial activity against Escherichia coli ATCC 8739 assessed as inhibition of bacterial growth measured after 24 hrs by turbidity based analysis; format: functional
[5] = test system: Pseudomonas aeruginosa; assay: Antibacterial activity against Pseudomonas aeruginosa ATCC 27853 assessed as inhibition of bacterial growth measured after 24 hrs by turbidity based analysis; format: functional
[6] = test system: Acinetobacter baumannii; assay: Antibacterial activity against Acinetobacter baumannii ATCC 19606 assessed as inhibition of bacterial growth measured after 24 hrs by turbidity based analysis; format: functional; conditions: ATCC 19606 = CIP 70.34 = JCM 6841
[7] = test system: Staphylococcus aureus; assay: Antibacterial activity against Staphylococcus aureus ATCC 6538 assessed as inhibition of bacterial growth measured after 24 hrs by turbidity based analysis; format: functional
[8] = test system: Enterococcus faecalis; assay: Antibacterial activity against Enterococcus faecalis ATCC 29212 assessed as inhibition of bacterial growth measured after 24 hrs by turbidity based analysis; format: functional
[9] = test system: Staphylococcus aureus; assay: Antibacterial activity against methicillin resistant Staphylococcus aureus assessed as inhibition of bacterial growth measured after 24 hrs by turbidity based analysis; format: functional
[10] = Hemolytic activity in human RBC assessed as induction of cell lysis measured after 30 mins by microtiter plate method; format: cell-based, Erythrocyte; conditions: human red blood cells (erythrocytes)
[11] = test system: L02; assay: Cytotoxicity against human L02 cells assessed as reduction in cell viability at >10 uM incubated for 24 hrs by CCK8 assay; format: cell-based; conditions: l02, 24 h
[12] = test system: Cell membrane; assay: Induction of outer membrane permeabilization to NPN in Escherichia coli ATCC 8739 cells assessed as increase in fluorescence intensity by NPN-probe based fluorescence spectrophotometric analysis; format: subcellular
[13] = test system: Cell membrane; assay: Induction of cytoplasmic membrane depolarization in Escherichia coli assessed as increase in fluorescence intensity a 1XMIC by DiSC3-5 dye based fluorescence method
[14] = test system: Cell membrane; assay: Induction of cytoplasmic membrane depolarization in Staphylococcus aureus assessed as increase in fluorescence intensity a 1XMIC by DiSC3-5 dye based fluorescence method
[15] = test system: Cell membrane; assay: Induction of cytoplasmic membrane permeabilization in Escherichia coli at 0.06 to 8 times MIC measured for 10 mins by propidium iodide dye based fluorescence assay
[16] = test system: Cell membrane; assay: Induction of cytoplasmic membrane permeabilization in Escherichia coli at 0.06 to 8 times MIC measured for 60 mins by propidium iodide dye based fluorescence assay
[17] = test system: Cell membrane; assay: Induction of cytoplasmic membrane permeabilization in Staphylococcus aureus at 0.06 to 8 times MIC measured for 60 mins by propidium iodide dye based fluorescence assay; format: subcellular
[18] = test system: Cell membrane; assay: Induction of cytoplasmic membrane permeabilization in Escherichia coli assessed as increase in red fluorescence intensity at 2 times MIC measured after 60 mins by fluorescence microscopy; format: subcellular
[19] = test system: Cell membrane; assay: Induction of cell membrane disruption in Escherichia coli assessed as increase in fluorescence intensity at 4 times MIC measured after 60 mins by PI staining based flow cytometric analysis (reference value: 0.1%); format: subcellular
[20] = test system: Cell membrane; assay: Induction of cell membrane disruption in Escherichia coli assessed as increase in fluorescence intensity at 2 times MIC measured after 60 mins by PI staining based flow cytometric analysis (reference value: 0.1%); format: subcellular
[21] = Stability of the compound in human serum at 100 uM measured after 24 hrs by RP-HPLC analysis; format: ADME, cell-free
[22] = test system: Escherichia coli; assay: Antibacterial activity against Escherichia coli ATCC 8739 infected in C57BL/6 mouse peritonitis sepsis model assessed as bacterial load in liver at 10 mg/kg, ip administered for 12 hrs (reference value: 5.7 +/-0.35 logCFU/gm); format: functional
[23] = test system: Escherichia coli; assay: Antibacterial activity against Escherichia coli ATCC 8739 infected in C57BL/6 mouse peritonitis sepsis model assessed as bacterial load in kidney at 10 mg/kg, ip administered for 12 hrs (reference value: 5.15 +/-0.4 logCFU/gm); format: functional
[24] = test system: Escherichia coli; assay: Antibacterial activity against Escherichia coli ATCC 8739 infected in C57BL/6 mouse peritonitis sepsis model assessed as bacterial load in spleen at 10 mg/kg, ip administered for 12 hrs (reference value: 6.01 +/-0.59 logCFU/gm); format: functional
[25] = test system: Escherichia coli; assay: Antibacterial activity against Escherichia coli ATCC 8739 infected in C57BL/6 mouse peritonitis sepsis model assessed as bacterial load in lung at 10 mg/kg, ip administered for 12 hrs (reference value: 5.47 +/-0.73 logCFU/gm); format: functional
[26] = test system: Staphylococcus aureus; assay: Antibacterial activity against Staphylococcus aureus ATCC 6538 assessed as inhibition of bacterial growth measured after 17 passages by turbidity based analysis; format: functional, organism-based
[27] = test system: Escherichia coli; assay: Antibacterial activity against Escherichia coli ATCC 8739 infected in C57BL/6 mouse peritonitis sepsis model assessed as reduction in inflammatory cell infiltration in liver at 10 mg/kg, ip administered for 12 hrs by Hematoxylin-Eosin staining based microscopic analysis; format: functional, organism-based
[28] = test system: Escherichia coli; assay: Antibacterial activity against Escherichia coli ATCC 8739 assessed as inhibition of bacterial growth measured after 17 passages by turbidity based analysis; format: functional, organism-based
[29] = test system: Escherichia coli; assay: Antibacterial activity against Escherichia coli ATCC 8739 infected in C57BL/6 mouse peritonitis sepsis model assessed as reduction in inflammatory cell infiltration in kidney at 10 mg/kg, ip administered for 12 hrs by Hematoxylin-Eosin staining based microscopic analysis; format: functional, organism-based
[30] = test system: Escherichia coli; assay: Antibacterial activity against Escherichia coli ATCC 8739 infected in C57BL/6 mouse peritonitis sepsis model assessed as reduction in inflammatory cell infiltration in spleen at 10 mg/kg, ip administered for 12 hrs by Hematoxylin-Eosin staining based microscopic analysis; format: functional, organism-based
[31] = test system: Escherichia coli; assay: Antibacterial activity against Escherichia coli ATCC 8739 infected in C57BL/6 mouse peritonitis sepsis model assessed as reduction in inflammatory cell infiltration in lung at 10 mg/kg, ip administered for 12 hrs by Hematoxylin-Eosin staining based microscopic analysis; format: functional, organism-based
[32] = test system: Lipid bilayer; assay: Binding affinity to bacterial inner membrane mimic DOPE/DOPG (3:1) large unilamellar vesicles assessed as calcein leakage measured after 30 mins fluorescence based assay
[33] = test system: Cell membrane; assay: Induction of cell membrane disruption in Escherichia coli assessed as wrinkled cells at 20 uM incubated for 1 hr by scanning electron microscopy
[34] = test system: Cell membrane; assay: Induction of cell membrane disruption in Staphylococcus aureus assessed as cell morphological damage at 20 uM incubated for 1 hr by scanning electron microscopy; format: subcellular
[35] = test system: Escherichia coli; assay: Bactericidal activity against Escherichia coli assessed as decrease in cell survival at 1XMIC measured after 24 hrs by colony counting assay; format: functional, organism-based
[36] = test system: Staphylococcus aureus; assay: Bactericidal activity against Staphylococcus aureus assessed as decrease in cell survival at 1XMIC measured after 24 hrs by colony counting assay; format: functional, organism-based
[37] = test system: Cell membrane; assay: Induction of cell membrane disruption in Escherichia coli assessed as increase in fluorescence intensity at 1 times MIC measured after 60 mins by PI staining based flow cytometric analysis (reference value: 0.1%); format: subcellular
[38] = test system: Lipid bilayer; assay: Binding affinity to eukaryotic cell membrane mimic DOPC/Cholesterol (3:1) large unilamellar vesicles assessed as calcein leakage measured after 30 mins fluorescence based assay
[39] = test system: Escherichia coli; assay: Antibacterial activity against Escherichia coli ATCC 8739 infected in C57BL/6 mouse peritonitis sepsis model assessed as clear boundaries between hepatic cell cords in liver at 10 mg/kg, ip administered for 12 hrs by Hematoxylin-Eosin staining based microscopic analysis; format: functional, organism-based
[40] = test system: Escherichia coli; assay: Antibacterial activity against Escherichia coli ATCC 8739 infected in C57BL/6 mouse peritonitis sepsis model assessed as glomerulus and renal tubules with normal shape in kidney at 10 mg/kg, ip administered for 12 hrs by Hematoxylin-Eosin staining based microscopic analysis; format: functional, organism-based
[41] = test system: Escherichia coli; assay: Antibacterial activity against Escherichia coli ATCC 8739 infected in C57BL/6 mouse peritonitis sepsis model assessed as clear boundaries between white and red pulps in spleen at 10 mg/kg, ip administered for 12 hrs by Hematoxylin-Eosin staining based microscopic analysis; format: functional, organism-based
[42] = test system: Escherichia coli; assay: Antibacterial activity against Escherichia coli ATCC 8739 infected in C57BL/6 mouse peritonitis sepsis model assessed as reduction in bleeding with normal shaped alveoli at 10 mg/kg, ip administered for 12 hrs by Hematoxylin-Eosin staining based microscopic analysis; format: functional, organism-based

CC(C)C[C@@H]1NC(=O)[C@H](CCCN)NC(=O)[C@H](CCCN)NC(=O)[C@H](CCCN)NC(=O)[C@H](CCCN)NC(=O)[C@H](CCCN)NC(=O)[C@@H](Cc2ccccc2)NC(=O)[C@H](Cc2ccccc2)NC(=O)[C@@H]2CCCN2C(=O)[C@@H](Cc2ccccc2)NC1=O
4.25 log10CFU/g: Activity [24]
3.15 log10CFU/g: Activity [25]
42.7%: Activity [37]
> 400 µM: HC50 at 0.5 h [10]
91.8%: Activity [19]
active: Activity [1] | Activity [3] | Activity [12] | Activity [13] | Activity [14] | Activity [16] | Activity [17] | Activity [18] | Activity [26] | Activity [27] | Activity [28] | Activity [29] | Activity [30] | Activity [31] | Activity [32] | Activity [33] | Activity [34] | Activity [35] | Activity [36] | Activity [39] | Activity [40] | Activity [41] | Activity [42]
5 µM: MIC [4] | MIC [7] | MIC [8]
3.48 log10CFU/g: Activity [23]
inactive: Activity [2] | Activity [15] | Activity [38]
Stable: Stabilty [21]
Toxic: Activity [11]
2.49 log10CFU/g: Activity [22]
78.3%: Activity [20]
10 µM: MIC [5] | MIC [6] | MIC [9]
